Assay results reported in patent US10308650B2, “Pesticidally active tetracyclic derivatives with sulfur containing substituents” (Syngenta Participations AG, priority 2014, dated 2019).
Like-named read-outs stand apart in the source and are kept apart here.

How the values were obtained:
Type in all cases: in vivo
[1] = tested on: Diabrotica balteata (Corn Root Worm); assay: Activity against Diabrotica balteata; settings: 96 h, read-out: effect in at least one of the two categories (mortality or growth inhibition); for percent effect (mortality or growth inhibition) at 200 ppm: application rate of 200 ppm, maize sprouts, L2 larvae, 4 days after infestation
Protocol: Example B2: Activity Against Diabrotica balteata (Corn Root Worm)
Maize sprouts placed onto an agar layer in 24-well microtiter plates were treated with aqueous test solutions prepared from 10,000 ppm DMSO stock solutions by spraying. After drying, the plates were infested with L2 larvae (6 to 10 per well). The samples were assessed for mortality and growth inhibition in comparison to untreated samples 4 days after infestation.

[2] = tested on: Euschistus heros (Neotropical Brown Stink Bug); assay: Activity against Euschistus heros; settings: 120 h, read-out: effect in at least one of the two categories (mortality or growth inhibition); for percent effect (mortality or growth inhibition) at 200 ppm: application rate of 200 ppm, soybean leaves, N2 nymphs, 5 days after infestation; for percent control (mortality or growth inhibition) at 200 ppm: in Glycine max
Protocol: Example B3: Activity Against Euschistus heros (Neotropical Brown Stink Bug)
Soybean leaves on agar in 24-well microtiter plates were sprayed with aqueous test solutions prepared from 10,000 ppm DMSO stock solutions. After drying the leaves were infested with N2 nymphs. The samples were assessed for mortality and growth inhibition in comparison to untreated samples 5 days after infestation.

[3] = tested on: Myzus persicae (Green Peach Aphid); assay: Activity against Myzus persicae: feeding/contact activity; settings: foliar, 144 h
Protocol: Example B5: Activity Against Myzus persicae (Green Peach Aphid): Feeding/Contact Activity
Sunflower leaf discs were placed onto agar in a 24-well microtiter plate and sprayed with aqueous test solutions prepared from 10,000 ppm DMSO stock solutions. After drying, the leaf discs were infested with an aphid population of mixed ages. The samples were assessed for mortality 6 days after infestation.

[4] = tested on: Spodoptera littoralis (Egyptian Cotton Leaf Worm); assay: Activity against Spodoptera littoralis (cotton leaf discs, spray); settings: foliar, 72 h, read-out: control (mortality, anti-feeding effect, growth inhibition)
Protocol: Example B9: Activity Against Spodoptera littoralis (Egyptian Cotton Leaf Worm)
Cotton leaf discs were placed onto agar in 24-well microtiter plates and sprayed with aqueous test solutions prepared from 10,000 ppm DMSO stock solutions. After drying the leaf discs were infested with five L1 larvae. The samples were assessed for mortality, anti-feeding effect, and growth inhibition in comparison to untreated samples 3 days after infestation. Control of Spodoptera littoralis by a test sample is given when at least one of the categories mortality, anti-feedant effect, and growth inhibition is higher than the untreated sample.

[5] = tested on: Myzus persicae (Green Peach Aphid); assay: Activity against Myzus persicae: intrinsic activity; settings: 120 h
Text: Example B7: Activity Against Myzus persicae (Green Peach Aphid). Intrinsic Activity
Test compounds prepared from 10,000 ppm DMSO stock solutions were applied by pipette into 24-well microtiter plates and mixed with sucrose solution. The plates were closed with a stretched Parafilm. A plastic stencil with 24 holes was placed onto the plate and infested pea seedlings were placed directly on the Parafilm. The infested plate was closed with a gel blotting paper and another plastic stencil and then turned upside down. The samples were assessed for mortality 5 days after infestation.

[6] = tested on: Plutella xylostella (Diamond Back Moth); assay: Activity against Plutella xylostella; settings: 120 h, read-out: effect in at least one of the two categories (mortality or growth inhibition); for percent effect (mortality or growth inhibition) at 200 ppm: application rate of 200 ppm, artificial diet, L2 larvae, 5 days after infestation
Protocol: Example B8: Activity Against Plutella xylostella (Diamond Back Moth)
24-well microtiter plates with artificial diet were treated with aqueous test solutions prepared from 10,000 ppm DMSO stock solutions by pipetting. After drying, the plates were infested with L2 larvae (10 to 15 per well). The samples were assessed for mortality and growth inhibition in comparison to untreated samples 5 days after infestation.

[7] = tested on: Myzus persicae (Green Peach Aphid); assay: Activity against Myzus persicae: systemic activity; settings: 144 h
Protocol: Example B6: Activity Against Myzus persicae (Green Peach Aphid). Systemic Activity
Roots of pea seedlings infested with an aphid population of mixed ages were placed directly into aqueous test solutions prepared from 10,000 DMSO stock solutions. The samples were assessed for mortality 6 days after placing seedlings into test solutions.

[8] = tested on: Aedes aegypti (Yellow Fever Mosquito); assay: Activity against Aedes aegypti; settings: 200 ppm in ethanol, dry deposit in 12 well plates, adult females, after 48 h and/or 24 h
Protocol: Example B13: Activity Against Aedes aegypti (Yellow Fever Mosquito)
Test solutions, at an application rate of 200 ppm in ethanol, were applied to 12 well tissue culture plates. Once the deposits were dry, five, two to five day old adult female Aedes aegypti were added to each well, and sustained with a 10% sucrose solution in a cotton wool plug. Assessment of knockdown was made one hour after introduction, and mortality was assessed at 24 and 48 hours after introduction.

[9] = tested on: Bemisia tabaci (Cotton White Fly); assay: Activity against Bemisia tabaci: feeding/contact activity; settings: foliar, 144 h, application rate of 200 ppm, cotton leaf discs, adult white flies, 6 days after incubation
Protocol: Example B1: Activity Against Bemisia tabaci (Cotton White Fly): Feeding/Contact Activity
Cotton leaf discs were placed on agar in 24-well microtiter plates and sprayed with aqueous test solutions prepared from 10,000 ppm DMSO stock solutions. After drying the leaf discs were infested with adult white flies. The samples were checked for mortality 6 days after incubation.

[10] = tested on: Spodoptera littoralis (Egyptian Cotton Leaf Worm); assay: Activity against Spodoptera littoralis (lettuce, uptake by the roots from agar); settings: 144 h, read-out: effect in at least one of the three categories (mortality, anti-feeding, or growth inhibition)
Text: Example B10: Activity Against Spodoptera littoralis (Egyptian Cotton Leaf Worm)
Test compounds were applied by pipette from 10,000 ppm DMSO stock solutions into 24-well plates and mixed with agar. Lettuce seeds were placed onto the agar and the multi well plate was closed by another plate which contained also agar. After 7 days the compound was absorbed by the roots and the lettuce grew into the lid plate. The lettuce leaves were then cut off into the lid plate. Spodoptera eggs were pipetted through a plastic stencil onto a humid gel blotting paper and the lid plate was closed with it. The samples were assessed for mortality, anti-feedant effect and growth inhibition in comparison to untreated samples 6 days after infestation.

[11] = application rate of 200 ppm, sunflower leaf discs, aphid population of mixed ages, 6 days after infestation, read-out: mortality
[12] = application rate of 200 ppm, cotton leaf discs, L1 larvae, 3 days after infestation
[13] = test rate of 12 ppm, sucrose solution under Parafilm, 5 days after infestation, read-out: mortality

CCS(=O)(=O)c1cc2ccccc2cc1-c1nc2cc(C(F)(F)F)cnc2n1C [Compound A3, 2-(3-ethylsulfonyl-2-naphthyl)-3-methyl-6-(trifluoromethyl)imidazo[4,5-b]pyridine]
≥ 80%: percent effect (mortality or growth inhibition) at 200 ppm [1] | percent effect (mortality or growth inhibition) at 200 ppm [2] | mortality at 200 ppm [3, 11] | mortality at 200 ppm [4, 12] | mortality at 12 ppm [5, 13] | percent effect (mortality or growth inhibition) at 200 ppm [6]

CCSc1cc2ccccc2cc1-c1nc2cc(C(F)(F)F)ncc2n1C [Compound A23, 2-(3-ethylsulfanyl-2-naphthyl)-3-methyl-6-(trifluoromethyl)imidazo[4,5-c]pyridine]
≥ 80%: percent effect (mortality or growth inhibition) at 200 ppm [1] | percent effect (mortality or growth inhibition) at 200 ppm [2] | mortality at 200 ppm [3, 11] | mortality at 12 ppm [5, 13] | percent effect (mortality or growth inhibition) at 200 ppm [6]

CCSc1cc2ccccc2nc1-c1nc2cc(C(F)(F)F)ncc2n1C [Compound A21, 3-ethylsulfanyl-2-[3-methyl-6-(trifluoromethyl)imidazo[4,5-c]pyridin-2-yl]quinolone]
≥ 80%: percent control (mortality or growth inhibition) at 200 ppm [1] | percent control (mortality or growth inhibition) at 200 ppm [2] | mortality at 200 ppm [3] | mortality at 200 ppm [4] | mortality at 12 ppm [5] | percent control (mortality or growth inhibition) at 200 ppm [6]

CCS(=O)(=O)c1cc2nc(C(F)(F)F)n(C)c2cc1-c1nc2cc(C(F)(F)F)ncc2n1C [Compound A8, 2-[6-ethylsulfonyl-3-methyl-2-(trifluoromethyl)benzimidazol-5-yl]-3-methyl-6-(trifluoromethyl)imidazo[4,5-c]pyridine]
≥ 80%: percent effect (mortality or growth inhibition) at 200 ppm [1] | percent effect (mortality or growth inhibition) at 200 ppm [2] | mortality at 200 ppm [3, 11] | mortality at 24 ppm ([7]; test rate of 24 ppm, roots of infested pea seedlings in test solution, 6 days, read-out: mortality) | pest or weed control at 200 ppm [8] | percent effect (mortality or growth inhibition) at 200 ppm [6] | mortality at 200 ppm [9]

CCS(=O)(=O)c1cc2cc(C#N)ccc2nc1-c1nc2cc(C(F)(F)F)ncc2n1C [Compound A50, 3-ethylsulfonyl-2-[3-methyl-6-(trifluoromethyl)imidazo[4,5-c]pyridin-2-yl]quinoline-6-carbonitrile]
≥ 80%: percent effect (mortality or growth inhibition) at 200 ppm [1] | percent effect (mortality or growth inhibition) at 200 ppm [2] | mortality at 200 ppm [3, 11] | mortality at 200 ppm [4, 12] | percent effect (mortality, anti-feeding or growth inhibition) at 12.5 ppm ([10]; test rate of 12.5 ppm, lettuce grown on treated agar, Spodoptera eggs, 6 days after infestation) | percent effect (mortality or growth inhibition) at 200 ppm [6] | mortality at 200 ppm [9]

CCSc1cc2c(nc1-c1nc3cc(C(F)(F)F)ncc3n1C)CC(C)(C)O2 [Compound A58, 6-ethylsulfanyl-2,2-dimethyl-5-[3-methyl-6-(trifluoromethyl)imidazo[4,5-c]pyridin-2-yl]-3H-furo[3,2-b]pyridine]
≥ 80%: percent effect (mortality or growth inhibition) at 200 ppm [1] | percent effect (mortality or growth inhibition) at 200 ppm [2] | mortality at 200 ppm [3, 11] | mortality at 200 ppm [4, 12] | mortality at 12 ppm [5, 13] | percent effect (mortality or growth inhibition) at 200 ppm [6] | mortality at 200 ppm [9]

CCS(=O)(=O)c1cc2cc(C(F)(F)C(F)(F)F)ccc2nc1-c1nc2cc(C(F)(F)F)ncc2n1C [Compound A52, 3-ethylsulfonyl-2-[3-methyl-6-(trifluoromethyl)imidazo[4,5-c]pyridin-2-yl]-6-(1,1,2,2,2-pentafluoroethyl)quinoline]
≥ 80%: percent effect (mortality or growth inhibition) at 200 ppm [1] | percent effect (mortality or growth inhibition) at 200 ppm [2] | mortality at 200 ppm [4, 12] | pest or weed control at 200 ppm [8] | percent effect (mortality or growth inhibition) at 200 ppm [6]

CCSc1cc2c(cc1-c1nc3cc(C(F)(F)F)ncc3n1C)nc(C(F)(F)F)n2C [Compound A39, 2-[6-ethylsulfanyl-1-methyl-2-(trifluoromethyl)benzimidazol-5-yl]-3-methyl-6-(trifluoromethyl)imidazo[4,5-c]pyridine]
≥ 80%: percent effect (mortality or growth inhibition) at 200 ppm [1] | pest or weed control at 200 ppm [8] | percent effect (mortality or growth inhibition) at 200 ppm [6]

CCS(=O)(=O)c1cc2ccccc2nc1-c1nc2cc(C(F)(F)F)ncc2n1C [Compound A22, 3-ethylsulfonyl-2-[3-methyl-6-(trifluoromethyl)imidazo[4,5-c]pyridin-2-yl]quinolone]
≥ 80%: percent control (mortality or growth inhibition) at 200 ppm [1] | percent control (mortality or growth inhibition) at 200 ppm [2] | mortality at 200 ppm [3] | mortality at 200 ppm [4] | mortality at 12 ppm [5] | percent control (mortality, anti-feedant effect or growth inhibition) at 12.5 ppm [10] | mortality at 24 ppm [7] | pest or weed control at 200 ppm [8] | percent control (mortality or growth inhibition) at 200 ppm [6]
